From patent US12195427B2, “MASP-2 inhibitors and methods of use” (priority 2018, dated 2025)

Target: MASP-2 CCP2-SP (Homo sapiens (Human), UniProt O00187)
Assay: MASP-2 co-crystallization, X-ray crystallography and structure analysis (H-bonds, van der Waals contacts);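 for Ligand-pharmacophore element distance, pharmacophore element C2: distance from averaged pharmacophore element to bound ligand; missing value means element absent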;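 for Ligand-pharmacophore element distance, pharmacophore element C3: distance from averaged pharmacophore element to bound ligand; missing value means element absent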;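 for Ligand-pharmacophore element distance, pharmacophore element C4: distance from averaged pharmacophore element to bound ligand; missing value means element absent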;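 for Ligand-pharmacophore element distance, pharmacophore element C5: distance from averaged pharmacophore element to bound ligand; missing value means element absent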
Design: van der Waals contact distance, MASP-2 HIS 483 atom CD2 / van der Waals contact distance, MASP-2 HIS 483 atom NE2 / van der Waals contact distance, SER 654 C to compound atom / van der Waals contact distance, SER 654 O to compound atom / van der Waals contact distance, TRP 655 C to compound atom / van der Waals contact distance, MASP-2 GLY 528 atom CA / van der Waals contact distance TRP 655 atom CZ3 / van der Waals contact distance TRP 655 atom N / van der Waals contact distance TRP 655 atom CE3 / van der Waals contact distance GLY 656 atom C / van der Waals contact distance GLY 656 atom CA / van der Waals contact distance GLY 656 atom O / van der Waals contact distance, MASP-2 TYR 607 atom CD1 / van der Waals contact distance, MASP-2 PRO 606 atom O / d(C3,CA1) / d(CA1,N1)2 / d(H4,O1) / d(H4,O2) / d(O1,O2) / d(CA1,O2) / d(CA6,O1) / d(CA6,O2) / d(CA1,C5) / d(O2,H3) / d(N2,C2) / d(CA5,N2) / d(N2,C4) / d(N2,C6) / d(N2,CA3) / d(N2,O3) / d(O4,H2): unit not given beside the values
Conditions: for Ligand-pharmacophore element distance, pharmacophore element C2 / Ligand-pharmacophore element distance, pharmacophore element C3 / Ligand-pharmacophore element distance, pharmacophore element C4 / Ligand-pharmacophore element distance, pharmacophore element C5 / Ligand-pharmacophore element distance, pharmacophore element C6 / Ligand-pharmacophore element distance, pharmacophore element C7 / Ligand-pharmacophore element distance, pharmacophore element CA1 / Ligand-pharmacophore element distance, pharmacophore element CA2 / Ligand-pharmacophore element distance, pharmacophore element CA3 / Ligand-pharmacophore element distance, pharmacophore element CA4 / Ligand-pharmacophore element distance, pharmacophore element CA5 / Ligand-pharmacophore element distance, pharmacophore element CA6: Table A4-1; for d(CA1,O1) / d(CA1,O2) / d(H4,O1) / d(H4,O2) / d(O1,O2): Table A5-1 pharmacophore: distance between elements, S2/S1 region; for a(CA1, O1, O2) / a(O1, O2, H4): Table A6-1 pharmacophore angle; for Pharmacophore torsion angle a(H4, O1, O2, H3) / Pharmacophore torsion angle a(H4, O1, O2, N2) / Pharmacophore torsion angle a(O1, H4, O2, CA1) / Pharmacophore torsion angle a(O1, O2, N2, C2): Table A7-1; for Pharmacophore protein distance to MET_658 (first MET_658 column) / Pharmacophore protein distance to MET_658 (second MET_658 column) / Pharmacophore protein distance to GLY_528 / Pharmacophore protein distance to PHE_529 / Pharmacophore protein distance to PRO_608 / Pharmacophore protein distance to SER_611 / Pharmacophore protein distance to TRP_655: Table A8-6, nearest protein atom in cell to the left; for Pharmacophore protein distance to MET_658 (first MET_658 column): 6th residue column; for Pharmacophore protein distance to MET_658 (second MET_658 column): 9th residue column; for Pharmacophore protein distance to TRP_655: pharmacophore elements C6, CA3, O3, H1
From the text: This example illustrates the preparation of recombinant MASP-2 protein, based on UniProt O00187, human mannan-binding lectin serine protease 2. Expression constructs for human MASP-2 CCP2-SP and CCP2-SP-6HIS were generated for recombinant expression in E. coli cells.
Typically, crystallization hits were obtained by screening against […] 96-well crystallization reagent kits (GRAS6, GRAS2, Hampton Research; MORPHEUS, Molecular Dimensions; Wizard 1&2 Cryo, Rigaku Reagents) and crystal growth was inspected by optical microscopy. Crystals were used directly or further optimized for X-ray diffraction. Crystals were captured with cryogenic loops and dipped into liquid nitrogen directly or cryoprotected with a 20% glycerol in crystallization formulation before flash-cooling in liquid nitrogen.
Thereafter crystals are transferred once or twice for soaking within the crystallization solution containing the MASP-2 inhibitor.
Crystals were diffracted with synchrotron X-rays of […] and X-ray diffraction datasets were collected at beamlines SSRL BL9-2, BL14-1, BL12-2 as well as ALS sector 5 using Dectris Pilatus and Eiger detectors. Structures were determined by molecular replacement using portions of the structure 1Q3X as search models and partially refined with Buster 2.10.2 or Refmac 5.8. […] When multiple ligand poses were observed, for instance arising from multiple molecules in the asymmetric unit or refined dual poses within the same molecule, only one pose was selected and analyzed.
LigPlot+ calls these ‘nonbonded contacts’ or ‘hydrophobic contacts’. Despite the name, there are atom pairings that include possible H-bonds. Thus, in some instances, the Table A2 also contains H-bond interactions.

[1] = Table A5-2 pharmacophore distance, S3/S4 region
[2] = between pharmacophore elements of the bound compound
[3] = Table A7-2, between pharmacophore elements of the bound compound

Chain of MASP-2 CCP2-SP (O00187 445-686): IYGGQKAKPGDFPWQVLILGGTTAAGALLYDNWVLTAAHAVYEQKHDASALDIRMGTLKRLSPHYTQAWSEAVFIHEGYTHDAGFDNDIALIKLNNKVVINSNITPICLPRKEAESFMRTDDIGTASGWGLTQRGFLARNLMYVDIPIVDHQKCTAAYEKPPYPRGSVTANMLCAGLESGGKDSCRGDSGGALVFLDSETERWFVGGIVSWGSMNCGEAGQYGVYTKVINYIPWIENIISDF
Chain of MASP-2 CCP2-SP (O00187 364-432 partner): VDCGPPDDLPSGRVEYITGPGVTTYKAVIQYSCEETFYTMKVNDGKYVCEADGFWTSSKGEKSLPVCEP

| SMILES | Ligand-pharmacophore element distance, pharmacophore element C2 | Ligand-pharmacophore element distance, pharmacophore element C3 | Ligand-pharmacophore element distance, pharmacophore element C4 | Ligand-pharmacophore element distance, pharmacophore element C5 | Ligand-pharmacophore element distance, pharmacophore element C6 | Ligand-pharmacophore element distance, pharmacophore element C7 | Ligand-pharmacophore element distance, pharmacophore element CA1 | Ligand-pharmacophore element distance, pharmacophore element CA2 | Ligand-pharmacophore element distance, pharmacophore element CA3 | Ligand-pharmacophore element distance, pharmacophore element CA4 | Ligand-pharmacophore element distance, pharmacophore element CA5 | Ligand-pharmacophore element distance, pharmacophore element CA6 | d(CA1,O1) | d(CA1,O2) | d(H4,O1) | d(H4,O2) | d(O1,O2) | d(N2,C2) [1] | d(O2,H3) [1] | d(O2,N2) [1] | also measured |
| --- | --- | --- | --- | --- | --- | --- | --- | --- | --- | --- | --- | --- | --- | --- | --- | --- | --- | --- | --- | --- | --- |
| C[C@H](NC(=O)[C@H](N)C1Cc2ccccc2C1)C(=O)NCc1ccc2c(N)nccc2c1.Cl.Cl [1088_A] | 1.75 | 0 | 0 | 0 | 0 | 0 | 0.4 | 0 | 0 | 0 | 0.39 | 0 | 5.33 | 4.61 | 6.97 | 5.89 | 3.49 | 3.41 | 3.72 | 2.73 | d(CA5,N2) [1]: 5.30; a(CA1, O1, O2): 99.08; a(O1, O2, H4): 149.95; a(O1, O2, H3) (Table A6-2 pharmacophore angle): 144.04; a(O1, O2, N2) (Table A6-2 pharmacophore angle): 141.09; a(O2, N2, C2) (Table A6-2 pharmacophore angle): 141.58; Pharmacophore torsion angle a(H4, O1, O2, H3) [2]: 49.33; Pharmacophore torsion angle a(H4, O1, O2, N2) [2]: 120.82; Pharmacophore torsion angle a(O1, H4, O2, CA1) [2]: −54.60; Pharmacophore torsion angle a(O1, O2, N2, C2) [2]: 103.40; Pharmacophore torsion angle a(O1, O2, N2, CA5) [3]: 116.27; Pharmacophore protein distance to MET_658 (first MET_658 column): 3.04; Pharmacophore protein distance to MET_658 (second MET_658 column): 3.12; Pharmacophore protein distance to GLY_528: 3.66; Pharmacophore protein distance to PHE_529: 2.75; Pharmacophore protein distance to PRO_608: 3.74; Pharmacophore protein distance to SER_611: 2.71; Pharmacophore protein distance to TRP_655: 3.75 |
| C[C@H](NC(=O)[C@H](N)C1Cc2ccccc2C1)C(=O)NCc1ccc2c(N)nccc2c1.Cl.Cl [1088_B] | 1.93 | 0 | 0 | 0 | 0 | 0 | 0.62 | 0.2 | 0 | 0 | 0 | 0 | 5.22 | 4.78 | 6.73 | 6.06 | 3.02 | 3.90 | 3.82 | 2.68 | d(N2,CA2) [1]: 6.13; a(CA1, O1, O2): 99.27; a(O1, O2, H4): 153.40; a(O1, O2, H3) (Table A6-2 pharmacophore angle): 144.52; a(O1, O2, N2) (Table A6-2 pharmacophore angle): 135.22; a(O2, N2, C2) (Table A6-2 pharmacophore angle): 140.65; a(O2, N2, CA2) (Table A6-2 pharmacophore angle): 154.54; Pharmacophore torsion angle a(H4, O1, O2, H3) [2]: 45.99; Pharmacophore torsion angle a(H4, O1, O2, N2) [2]: 121.15; Pharmacophore torsion angle a(O1, H4, O2, CA1) [2]: −63.34; Pharmacophore torsion angle a(O1, O2, N2, C2) [2]: 129.99; Pharmacophore torsion angle a(O1, O2, N2, CA2) [3]: 134.51; Pharmacophore protein distance to MET_658 (first MET_658 column): 3.04; Pharmacophore protein distance to MET_658 (second MET_658 column): 3.12; Pharmacophore protein distance to GLY_528: 3.66; Pharmacophore protein distance to PHE_529: 2.75; Pharmacophore protein distance to PRO_608: 3.74; Pharmacophore protein distance to SER_611: 2.71; Pharmacophore protein distance to TRP_655: 3.75 |
